{"source": "patent US20180185370A1", "about": "“PYRAZINOQUINAZOLINONE DERIVATIVES WITH ANTIBACTERIAL ACTIVITY, METHODS AND USES THEREOF” (UNIVERSIDADE DO PORTO, priority 2015, published 2018)", "key": {"P. aeruginosa ATCC 27853": {"tested_on": "P. aeruginosa ATCC 27853", "assay": "Antibacterial susceptibility testing, broth microdilution (MIC)", "type": "cell-based, Pseudomonas aeruginosa", "experimental": "(§1) Bacterial strains and growth conditions. Five reference strains, Staphylococcus aureus ATCC 25923, Bacillus subtilis ATCC 6633, E. faecalis ATCC 29212, Escherichia coli ATCC 25922 and Pseudomonas aeruginosa ATCC 27853, and three multidrug-resistant isolates from environment, S. aureus B1 (a MRSA isolated from public buses), Enterococcus faecalis W1 (a VRE isolated from river water) and E. coli G1 (isolated from seagull feces) were used. Bacteria were grown overnight at 37° C. in Mueller-Hinton agar (MH—BioKar diagnostics, Allonne, France) prior to obtain be used in the subsequently described bioassays.\n(§2) Antibacterial susceptibility testing. The minimum inhibitory concentration (MIC) values of the compounds of FIGS. 1D, 1E, 1G, 1H (equation i-iv) and 11 (equations v-x) were determined, in particular, by a broth microdilution technique, following the recommendations of the Clinical and Laboratory Standards Institute. Stock solutions of 10 mg/ml in DMSO were used to prepare in-test concentrations ranging from 2 to 256 μg/ml. Ciprofloxacin in the concentration range from 0.03125 to 16 μg/ml was used, in particular, as control drug in the experiment. The MIC was defined as the lowest concentration of compound that has inhibited the visible growth. The minimum bactericidal concentration (MBC) was determined by spreading on MH plates, 10 μL collected from the wells corresponding to the MIC and to higher concentrations, with further incubation for 24 h at 37° C.; the lowest concentration at which no growth occurred on MH was defined as the MBC."}, "S. aureus B1 [1]": {"tested_on": "S. aureus B1", "assay": "Biofilm metabolic activity after treatment, MTT", "type": "cell-based, Staphylococcus aureus", "conditions": "24-h biofilms of S. aureus B1 treated for 24 h with 200 μg/ml", "experimental": "(§3) Evaluation of the biofilm metabolic activity after treatment with different concentrations of neofiscalin A. Twenty four-hours biofilms of S. aureus B1 and E. faecalis W1 formed as above described were subsequently treated with high concentrations of neofiscalin A, in particular up to 25×MIC. After 24 h of incubation at 37° C., the bacterial metabolic activity of biofilms was quantified using the 3-(4,5-dimethylthiazole-2-yl)-2,5-diphenyl tetrazolium bromide (MTT, Sigma-Aldrich, St Louis, USA). MTT is used to assess cell viability as a function of redox potential. Actively respiring cells convert the water-soluble MU to an insoluble purple formazan. The formazan is then solubilized and its concentration determined by optical density. In this assay, biofilms were treated with MU (0.5 mg/ml) for 2 h at 37° C. in the dark. DMSO was used to extract the formazan dye product and then the absorbance at 550 nm was measured."}, "B. subtilis ATCC 6633": {"tested_on": "B. subtilis ATCC 6633", "assay": "Antibacterial susceptibility testing, broth microdilution (MIC/MBC)", "type": "cell-based, Bacillus subtilis", "experimental": "as §1, §2"}, "E. faecalis W1 [2]": {"tested_on": "E. faecalis W1", "assay": "Biofilm metabolic activity after treatment, MTT", "type": "cell-based, Enterococcus faecalis", "conditions": "24-h biofilms of E. faecalis W1 treated for 24 h with 200 μg/ml", "experimental": "as §3"}, "S. aureus B1 [3]": {"tested_on": "S. aureus B1", "assay": "Biofilm inhibitory and biofilm eradication concentrations on 24-h mature biofilms", "type": "cell-based, Staphylococcus aureus", "experimental": "(§4) Determination of neofiscalin A biofilm inhibitory and biofilm eradication concentrations. The efficacy of neofiscalin A on 24-h mature biofilms of S. aureus B1 and E. faecalis W1 was also evaluated, in particular, by determining the BIC and the BEC. […] The optical density at 595 nm was measured at time 0 and after incubation for 24 h at 37° C. The BIC was determined as the lowest concentration of the compound inhibiting growth in the supernatant fluid, confirmed by no increase in the optical density compared with the initial reading. The BEC was determined as the lowest concentration that prevented regrowth of biofilm cells on tryptic soy agar plates."}, "[4]": {"tested_on": "S. aureus and E. faecalis strains", "assay": "Antibacterial susceptibility testing", "type": "cell-based", "experimental": "as §1, §2"}, "S. aureus ATCC 25923": {"tested_on": "S. aureus ATCC 25923", "assay": "Antibacterial susceptibility testing, broth microdilution (MIC/MBC)", "type": "cell-based, Staphylococcus aureus", "experimental": "as §1, §2"}, "S. aureus B1 (MRSA)": {"tested_on": "S. aureus B1 (MRSA)", "assay": "Antibacterial susceptibility testing, broth microdilution (MIC/MBC)", "type": "cell-based, Staphylococcus aureus", "conditions": "S. aureus B1 (MRSA)", "experimental": "as §1, §2"}, "E. coli ATCC 25922": {"tested_on": "E. coli ATCC 25922", "assay": "Antibacterial susceptibility testing, broth microdilution (MIC)", "type": "cell-based, Escherichia coli", "experimental": "as §1, §2"}, "E. faecalis W1 [5]": {"tested_on": "E. faecalis W1", "assay": "Biofilm inhibitory and biofilm eradication concentrations on 24-h mature biofilms", "type": "cell-based, Enterococcus faecalis", "experimental": "as §4"}, "[6]": {"tested_on": "S. aureus B1 and E. faecalis W1", "assay": "Microscopic visualization of biofilms, Live/Dead staining", "type": "cell-based", "conditions": "24 h", "experimental": "The efficacy of neofiscalin A was also evaluated in hampering the biofilm formation. Neofiscalin A, in particular, at concentrations of 2×MIC, MIC, ½×MIC and ¼×MIC was added to bacterial suspensions of 1×10^6 CFU/ml in Tryptic Soy Broth (TSB—BioKar diagnostics, Allonne, France) of S. aureus ATCC 25923, E. faecalis ATCC 29212, S. aureus B1 and E. faecalis W1. Bacterial suspensions in absence of the compound were used as controls. Biofilm formation was induced, in particular, in 96-well flat-bottomed microtiter plates (200 μL/well) for 24 h at 37° C. After that time, biofilm biomass was quantified through the crystal violet assay as follows: the planktonic phase was discharged, then the biofilm was stained with 0.5% crystal violet for 5 min, rinsed with water, air dried and eluted with acetic acid 33% (v/v). The optical density was measured at 595 nm (0D595) using a microplate reader (iMark™ microplate absorbance reader, Bio-Rad Laboratories, Hercules, Calif., USA). Two independent experiments were performed in triplicate for each experimental condition. The statistical significance of the difference between biofilm controls and biofilms in the presence of different concentrations of compounds was evaluated using Student's t test. […] Images were recorded at an emission wavelength of 500 nm for SYTO 9 (green fluorescence) and of 635 nm for propidium iodide (red fluorescence)."}, "[7]": {"tested_on": "S. aureus ATCC 25923, E. faecalis ATCC 29212, S. aureus B1 and E. faecalis W1", "assay": "Inhibition of biofilm formation, crystal violet assay", "type": "cell-based", "conditions": "for biofilm formation (biomass, crystal violet): 24 h", "experimental": "The efficacy of neofiscalin A was also evaluated in hampering the biofilm formation. Neofiscalin A, in particular, at concentrations of 2×MIC, MIC, ½×MIC and ¼×MIC was added to bacterial suspensions of 1×10^6 CFU/ml in Tryptic Soy Broth (TSB—BioKar diagnostics, Allonne, France) of S. aureus ATCC 25923, E. faecalis ATCC 29212, S. aureus B1 and E. faecalis W1. Bacterial suspensions in absence of the compound were used as controls. Biofilm formation was induced, in particular, in 96-well flat-bottomed microtiter plates (200 μL/well) for 24 h at 37° C. After that time, biofilm biomass was quantified through the crystal violet assay as follows: the planktonic phase was discharged, then the biofilm was stained with 0.5% crystal violet for 5 min, rinsed with water, air dried and eluted with acetic acid 33% (v/v). The optical density was measured at 595 nm (0D595) using a microplate reader (iMark™ microplate absorbance reader, Bio-Rad Laboratories, Hercules, Calif., USA). Two independent experiments were performed in triplicate for each experimental condition. The statistical significance of the difference between biofilm controls and biofilms in the presence of different concentrations of compounds was evaluated using Student's t test. In both cases, probability levels <0.05 were considered statistically significant. Additionally, a microscopic visualization of the biofilms of S. aureus B1 and E. faecalis W1 was performed, in particular, using the Live/Dead BacLight viability kit (Life Technologies—Molecular Probes, Carlsbad, Calif., USA). Biofilms were formed, in particular, in 35-mm diameter polystyrene plates using TSB (control) and TSB supplemented with the MIC or ¼×MIC of neofiscalin A. After 24 h at 37° C., the planktonic phase was removed from each plate and the biofilms were washed with PBS, stained with the appropriate mixture of SYTO 9 and propidium iodide stains and incubated for 20 min at room temperature, in particular 20-25° C., in the dark; then, biofilms were rinsed and examined under a fluorescence microscope (BX41 Microscope, Olympus America Inc., Center Valley, Pa., USA). Images were recorded at an emission wavelength of 500 nm for SYTO 9 (green fluorescence) and of 635 nm for propidium iodide (red fluorescence)."}, "E. faecalis W1 (VRE)": {"tested_on": "E. faecalis W1 (VRE)", "assay": "Antibacterial susceptibility testing, broth microdilution (MIC/MBC)", "type": "cell-based, Enterococcus faecalis", "conditions": "E. faecalis W1 (VRE)", "experimental": "as §1, §2"}, "E. faecalis ATCC 29212": {"tested_on": "E. faecalis ATCC 29212", "assay": "Antibacterial susceptibility testing, broth microdilution (MIC/MBC)", "type": "cell-based, Enterococcus faecalis", "experimental": "as §1, §2"}}}
{"compound": "CC(C)[C@@H]1NC(=O)[C@@H](C[C@]2(O)c3ccccc3N3C(=O)[C@@H](C)N[C@H]32)n2c1nc1ccccc1c2=O", "note": "[FIG. 1I (eq. ix), neofiscalin A]", "values": [{"measurement": "Minimum inhibitory concentration-MIC", "setting": "P. aeruginosa ATCC 27853", "result": ">256", "unit": "µg/mL"}, {"measurement": "reduction of metabolic activity of biofilm (MTT)", "setting": "S. aureus B1 [1]", "result": "~50", "unit": "%"}, {"measurement": "Minimum bactericidal concentration-MBC", "setting": "B. subtilis ATCC 6633", "result": ">256", "unit": "µg/mL"}, {"measurement": "Minimum inhibitory concentration-MIC", "setting": "B. subtilis ATCC 6633", "result": 128, "unit": "µg/mL"}, {"measurement": "reduction of metabolic activity of biofilm (MTT)", "setting": "E. faecalis W1 [2]", "result": "~50", "unit": "%"}, {"measurement": "biofilm inhibitory concentration (BIC)", "setting": "S. aureus B1 [3]; 24-h biofilms of S. aureus B1 (MRSA)", "result": 96, "unit": "µg/mL"}, {"measurement": "biofilm eradication concentration (BEC)", "setting": "S. aureus B1 [3]; 24-h biofilms of S. aureus B1, higher than 25×MIC", "result": "> 200", "unit": "µg/mL"}, {"measurement": "MIC value", "setting": "[4]; S. aureus and E. faecalis strains, including multidrug-resistant isolates (MRSA, VRE)", "result": 8, "unit": "µg/mL"}, {"measurement": "MBC relative to the MIC", "setting": "[4]; Table 3 versus Table 2", "result": "usually four times higher than the MIC"}, {"measurement": "antibacterial activity", "setting": "[4]; reference strains and multidrug-resistant isolates, highest concentration tested 256 μg/ml", "result": "presented antibacterial activity against Gram-positive bacteria"}, {"measurement": "Minimum bactericidal concentration-MBC", "setting": "S. aureus ATCC 25923", "result": 16, "unit": "µg/mL"}, {"measurement": "Minimum inhibitory concentration-MIC", "setting": "S. aureus ATCC 25923", "result": 8, "unit": "µg/mL"}, {"measurement": "Minimum bactericidal concentration-MBC", "setting": "S. aureus B1 (MRSA)", "result": 32, "unit": "µg/mL"}, {"measurement": "Minimum inhibitory concentration-MIC", "setting": "S. aureus B1 (MRSA)", "result": 8, "unit": "µg/mL"}, {"measurement": "Minimum inhibitory concentration-MIC", "setting": "E. coli ATCC 25922", "result": ">256", "unit": "µg/mL"}, {"measurement": "biofilm inhibitory concentration (BIC)", "setting": "E. faecalis W1 [5]; 24-h biofilms of E. faecalis W1 (VRE)", "result": 80, "unit": "µg/mL"}, {"measurement": "biofilm eradication concentration (BEC)", "setting": "E. faecalis W1 [5]; 24-h biofilms of E. faecalis W1, higher than 25×MIC", "result": "> 200", "unit": "µg/mL"}, {"measurement": "biofilm formation (Live/Dead microscopy)", "setting": "[6]; at the MIC", "result": "no biofilm was produced"}, {"measurement": "biofilm formation (Live/Dead microscopy)", "setting": "[6]; ¼×MIC", "result": "a biofilm was formed (FIG. 4C), though it was not as large as in the control"}, {"measurement": "biofilm formation (biomass, crystal violet)", "setting": "[7]; 2×MIC and MIC", "result": "none of the strains was able to form a biofilm"}, {"measurement": "biofilm formation", "setting": "[7]; MRSA and VRE strains", "result": "inhibit the biofilm formation"}, {"measurement": "biofilm formation (biomass, crystal violet)", "setting": "[7]; ¼×MIC", "result": "allowed the formation of a larger biofilm, but smaller than that observed in the control group"}, {"measurement": "biofilm formation (biomass, crystal violet)", "setting": "[7]; ½×MIC", "result": "the strains did not succeed in forming much biofilm"}, {"measurement": "Minimum bactericidal concentration-MBC", "setting": "E. faecalis W1 (VRE)", "result": 32, "unit": "µg/mL"}, {"measurement": "Minimum inhibitory concentration-MIC", "setting": "E. faecalis W1 (VRE)", "result": 8, "unit": "µg/mL"}, {"measurement": "Minimum bactericidal concentration-MBC", "setting": "E. faecalis ATCC 29212", "result": 32, "unit": "µg/mL"}, {"measurement": "Minimum inhibitory concentration-MIC", "setting": "E. faecalis ATCC 29212", "result": 8, "unit": "µg/mL"}]}
